Consider 36 compounds from patent publication US9593113B2, “Imide and acylurea derivatives as modulators of the glucocorticoid receptor” (BRISTOL-MYERS SQUIBB COMPANY, priority 2013, dated 2017).

Test [1] addresses human full-length glucocorticoid receptor (Homo sapiens (Human), UniProt P04150). Kind of test: Glucocorticoid Receptor Binding Assay (II), fluorescence polarization competitor kit. To be noted: read-out: GR (Ki, nM) (measured in GR binding Assay II). As for the experimental part:
In order to measure the binding of compounds on the glucocorticoid receptor a commercially available kit was used (Glucocorticoid receptor competitor assay kit, PanVera Co., Madison, Wis., P2816). Briefly, a cell lysate containing recombinantly expressed human full-length glucocorticoid receptor was mixed with a fluorescently labeled glucocorticoid (1 nM Fluormone GS1) in the presence or absence of test compound. After one hour at room temperature, the fluorescence polarization (FP) of the samples were measured.
In general terms: Polarisation of emitted light reports the rotation of a fluorescent probe.

For test [2], the system named is AP-1 induced transcriptional activity. Nature of the test: Cellular transrepressional assay (AP-1 luciferase reporter, PMA-activated A549 cell). In kind it is cell-based. The following applies: A549 cell, 10 ng/ml PMA, 7 hours; for EC50: read-out: AP-1 (EC50, nM) (measured in cellular transrepression assay). As for the experimental part: To measure the ability of test molecules to inhibit AP-1 induced transcriptional activity we utilized an A549 cell which was stably transfected with a plasmid containing 7×AP-1 DNA binding sites (pAP-1-Luc plasmid, Stratagene Co., La Jolla, Calif.) followed by the gene for luciferase. Cells were activated with 10 ng/ml of phorbol myristic acid (PMA) plus or minus test molecules for 7 hours. After 7 hours a luciferase reagent was added to measure luciferase enzymatic activity in the cell. After a 10 minute incubation of luciferase reagent with cells, luminescence was measured in a TOPCOUNT® luminescence counter. Repression of AP-1 activity was calculated as the percentage decrease in the signal induced by PMA alone. Test molecules were analyzed in the concentration range from 0.1 nM to 40 μM. EC50s were determined by using standard curve fitting methods such as Excel fit (Microsoft Co.). An EC50 is the test molecule concentration at which there is a 50% repression of the maximal inhibition of transcription, i.e., a 50% reduction of AP-1 activity.
On the technique in general: In a reporter assay the amount or activity of a reporter protein is the signal.

Read-outs that look alike come from different tables or passages of the source.

human full-length glucocorticoid receptor, sequence (P04150 whole entry): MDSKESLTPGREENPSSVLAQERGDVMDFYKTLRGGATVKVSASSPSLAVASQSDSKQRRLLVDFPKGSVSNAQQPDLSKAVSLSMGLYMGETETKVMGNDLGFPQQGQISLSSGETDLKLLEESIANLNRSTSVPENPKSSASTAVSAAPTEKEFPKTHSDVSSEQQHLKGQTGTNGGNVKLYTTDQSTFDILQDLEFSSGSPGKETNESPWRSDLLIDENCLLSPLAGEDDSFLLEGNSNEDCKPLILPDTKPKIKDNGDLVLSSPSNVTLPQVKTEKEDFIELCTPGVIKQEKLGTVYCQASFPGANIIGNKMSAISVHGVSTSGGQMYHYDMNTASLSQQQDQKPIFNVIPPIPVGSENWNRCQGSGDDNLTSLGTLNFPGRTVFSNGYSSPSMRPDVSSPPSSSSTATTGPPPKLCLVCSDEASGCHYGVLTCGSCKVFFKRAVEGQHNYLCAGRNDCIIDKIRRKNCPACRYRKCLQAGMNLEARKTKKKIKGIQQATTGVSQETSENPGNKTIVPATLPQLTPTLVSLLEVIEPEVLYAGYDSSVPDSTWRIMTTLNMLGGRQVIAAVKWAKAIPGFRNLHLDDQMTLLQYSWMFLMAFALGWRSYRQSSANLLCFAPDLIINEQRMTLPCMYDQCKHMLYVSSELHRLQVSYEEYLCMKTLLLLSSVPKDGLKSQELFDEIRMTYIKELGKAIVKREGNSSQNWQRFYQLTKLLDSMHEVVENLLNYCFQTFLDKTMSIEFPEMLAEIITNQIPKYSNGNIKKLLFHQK

By Ki is commonly meant a measure of affinity in units of concentration, obtained from inhibition or displacement. One may read the EC50 as the concentration giving half of the maximal effect. For `CCC(=O)NC(=O)C(C)(C)[C@@H]1c2ccc(Cl)nc2Oc2c(F)cccc21` [Example 1], in test [1], the Ki stood at 42.7 nM. The “AP-1 Max % inhibition (measured in cellular transrepression assay)” value (from here on “AP-1 Max % inhibition”) in test [2] came to 17.32%. Also, the EC50 in test [2] (Homo sapiens) was determined as 5000 nM.
As for `CC(=O)NC(=O)C(C)(C)[C@@H]1c2ccc(-c3ccc(C(=O)N4CCOCC4)cc3)nc2Oc2c(F)cccc21` [Example 2], in test [2], the “AP-1 Max % inhibition” value was 67.48%. Besides, in test [2] (Homo sapiens), the EC50 came out at 4.97 nM.
For `CC(=O)NC(=O)C(C)(C)[C@@H]1c2ccc(-c3ccc(C(=O)N(C)C)cc3)nc2Oc2c(F)cccc21` [Example 3] the same measures were 79.66% and 267 nM.
In the same order, the values of `CC(=O)NC(=O)C(C)(C)[C@H]1c2ccccc2Oc2nc(-c3ccc(C(=O)N4CCOCC4)cc3)ccc21` [Example 4] are 67.93% and 6.65 nM.
For `CCC(=O)NC(=O)C(C)(C)[C@@H]1c2ccc(-c3ccc(C(=O)N4CCOCC4)cc3)nc2Oc2c(F)cccc21` [Example 5] the same measures were 32.83% and 180 nM.
As for `CC(=O)NC(=O)C(C)(C)[C@@H]1c2ccc(-c3ccc(C(=O)N4CCCC4)cc3)nc2Oc2c(F)cccc21` [Example 8], the inhibition constant (Ki) in test [1] was determined as 3.59 nM. In addition, in test [2], the “AP-1 Max % inhibition” value turned out to be 64.35% and the EC50 was determined as 5.97 nM.
`CC(C)(C(=O)NC(=O)N1CCOCC1)[C@@H]1c2ccc(-c3ccc(C(=O)N4CCOCC4)cc3)nc2Oc2c(F)cccc21` [Example 10]: in test [2], the “AP-1 Max % inhibition” value was 66.12%. In test [2] (Homo sapiens), the EC50 was determined as 623 nM.
Take `CNC(=O)NC(=O)C(C)(C)[C@@H]1c2ccc(-c3ccc(C(=O)N4CCCC4)cc3)nc2Oc2c(F)cccc21` [Example 11]: the Ki in test [1] stood at 4.44 nM. In test [2], the “AP-1 Max % inhibition” value was 46.34% and the EC50 was 29.6 nM.
For `CCS(=O)(=O)c1ccc(-c2ccc3c(n2)Oc2c(F)cccc2[C@@H]3C(C)(C)C(=O)NC(=O)NC)cc1` [Example 12] the same measures were 5.04 nM, 36.42% and 85.7 nM.
In the same order, the values of `CNC(=O)NC(=O)C(C)(C)[C@@H]1c2ccc(-c3ccc(S(C)(=O)=O)cc3)nc2Oc2c(F)cccc21` [Example 13] are 13.6 nM, 31.60% and 483 nM.
Turning to `CNC(=O)NC(=O)C(C)(C)[C@@H]1c2ccc(Cl)nc2Oc2c(F)cccc21` [Example 14], in test [2], the “AP-1 Max % inhibition” value turned out to be 54.92%. Besides, the EC50 in test [2] (Homo sapiens) came out at 337 nM.
For `CNC(=O)NC(=O)C(C)(C)[C@@H]1c2ccc(-c3ccc(C(C)(C)O)cc3)nc2Oc2c(F)cccc21` [Example 15] the same measures were 61.15% and 47.1 nM.
Regarding `CNC(=O)NC(=O)C(C)(C)[C@@H]1c2ccc(-c3ccc(OC(C)C)cc3)nc2Oc2c(F)cccc21` [Example 16], in test [1], the Ki came to 1.6 nM. For the same compound, in test [2], the “AP-1 Max % inhibition” value was determined as 49.58% and the EC50 is 35.1 nM.
For `CNC(=O)NC(=O)C(C)(C)[C@@H]1c2ccc(-c3ccc(OC(C)C)nc3)nc2Oc2c(F)cccc21` [Example 17] the same measures were 9.68 nM, 37.10% and 2500 nM.
In the case of `CNC(=O)NC(=O)C(C)(C)[C@@H]1c2ccc(-c3cnc(N4CCN(C)CC4)nc3)nc2Oc2c(F)cccc21` [Example 18], in test [1], the Ki came to 239 nM. Also, in test [2], the “AP-1 Max % inhibition” value amounted to 21.96% and the EC50 worked out at 5000 nM.
Regarding `CC(C)NC(=O)NC(=O)C(C)(C)[C@@H]1c2ccc(-c3ccc(C(=O)N4CCOCC4)cc3)nc2Oc2c(F)cccc21` [Example 19], in test [2], the “AP-1 Max % inhibition” value was found to be 25.94%. Moreover, the EC50 in test [2] (Homo sapiens) amounted to 199 nM.
On to `CC(C)(C(=O)NC(=O)NC1CCCC1)[C@@H]1c2ccc(-c3ccc(C(=O)N4CCOCC4)cc3)nc2Oc2c(F)cccc21` [Example 20], for which, in test [2], the “AP-1 Max % inhibition” value is reported as 29.26% and the EC50 is 135 nM.
For `CC(C)(C(=O)NC(=O)Nc1ccccc1)[C@@H]1c2ccc(-c3ccc(C(=O)N4CCOCC4)cc3)nc2Oc2c(F)cccc21` [Example 21] the same measures were 39.92% and 21.7 nM.
With `CCNC(=O)NC(=O)C(C)(C)[C@@H]1c2ccc(-c3ccc(C(=O)N4CCOCC4)cc3)nc2Oc2c(F)cccc21` [Example 22], in test [2], the “AP-1 Max % inhibition” value turned out to be 44.77% and the EC50 is 8.21 nM.
`CNC(=O)NC(=O)C(C)(C)[C@@H]1c2ccc(-c3ccc(S(=O)(=O)C(C)C)cc3)nc2Oc2c(F)cccc21` [Example 25]: the Ki in test [1] was determined as 5.26 nM. Moreover, in test [2], the “AP-1 Max % inhibition” value came out at 25.41% and the EC50 was found to be 347 nM.
As to `COC(=O)NC(=O)C(C)(C)[C@@H]1c2ccc(-c3ccc(C(=O)OC)cc3)nc2Oc2c(F)cccc21` [Example 26], in test [2], the “AP-1 Max % inhibition” value stood at 6.98%. In addition, the EC50 in test [2] (Homo sapiens) was 5000 nM.
For the compound `CNC(=O)NC(=O)C(C)(C)[C@@H]1c2ccc(-c3ccc(N4CCOCC4)nc3)nc2Oc2c(F)cccc21` [Example 27], the Ki in test [1] came out at 10.9 nM. For the same compound, the “AP-1 Max % inhibition” value in test [2] amounted to 16.38%. Besides, the EC50 in test [2] (Homo sapiens) was determined as 5000 nM.
As for `CC(C)(C(=O)NC(N)=O)[C@H]1c2ccccc2Oc2nc(-c3ccc(C(=O)N4CCOCC4)cc3)ccc21` [Example 28], in test [2], the “AP-1 Max % inhibition” value is reported as 68.66%. Moreover, the EC50 in test [2] (Homo sapiens) came to 7.63 nM.
With `COc1ccc(CNC(=O)NC(=O)C(C)(C)[C@@H]2c3ccc(-c4ccc(C(C)(C)O)cc4)nc3Oc3c(F)cccc32)cc1` [Example 29], in test [1], the Ki worked out at 3.33 nM. Also, the “AP-1 Max % inhibition” value in test [2] is given as 51.82%. The EC50 in test [2] (Homo sapiens) is 646 nM.
With `CC(C)(C(=O)NC(N)=O)[C@@H]1c2ccc(-c3ccc(C(=O)N4CCCC4)cc3)nc2Oc2c(F)cccc21` [Example 30], the Ki in test [1] was determined as 0.72 nM. In test [2], the “AP-1 Max % inhibition” value is given as 63.94% and the EC50 is 1.59 nM.
As to `CC(C)(C(=O)NC(N)=O)[C@H]1c2ccccc2Oc2nc(-c3ccc(C(=O)N4CCOCC4)c(F)c3)ccc21` [Example 44], in test [2], the “AP-1 Max % inhibition” value amounted to 69.43% and the EC50 was determined as 13.9 nM.
For `CC(C)(C(=O)NC(N)=O)[C@H]1c2ccccc2Oc2nc(-c3ccc(C(=O)N4CCOCC4)nc3)ccc21` [Example 55] the same measures were 60.59% and 116 nM.
For `CC(C)(C(=O)NC(N)=O)[C@@H]1c2ccc(-c3ccc(C(=O)N4CCOCC4)c(F)c3)nc2Oc2c(F)cccc21` [Example 56] the same measures were 72.50% and 6.39 nM.
Regarding `CC(C)(O)c1ccc(-c2ccc3c(n2)Oc2c(F)cccc2[C@@H]3C(C)(C)C(=O)NC(N)=O)cc1` [Example 69], the “AP-1 Max % inhibition” value in test [2] worked out at 67.09%. The EC50 in test [2] (Homo sapiens) turned out to be 2.03 nM.
In the same order, the values of `COc1ccc2c(c1)Oc1ccccc1[C@@H]2C(C)(C)C(=O)NC(N)=O` [Example 74] are 7.70% and 5000 nM.
In the same order, the values of `CC(C)(C(=O)NC(=O)NCCO)[C@@H]1c2ccc(-c3ccc(C(=O)N4CCOCC4)cc3)nc2Oc2c(F)cccc21` [Example 77] are 55.34% and 786 nM.
In the same order, the values of `CC(C)(O)CNC(=O)NC(=O)C(C)(C)[C@@H]1c2ccc(-c3ccc(C(=O)N4CCOCC4)cc3)nc2Oc2c(F)cccc21` [Example 78] are 46.32% and 340 nM.
With `CC(C)(O)CNC(=O)NC(=O)C(C)(C)[C@@H]1c2ccc(-c3ccc(C(C)(C)O)cc3)nc2Oc2c(F)cccc21` [Example 79], the “AP-1 Max % inhibition” value in test [2] is 36.12%. The EC50 in test [2] (Homo sapiens) is 789 nM.
For `CC(C)(O)c1ccc(-c2ccc3c(n2)Oc2c(F)cccc2[C@@H]3C(C)(C)C(=O)NC(=O)NCCO)cc1` [Example 80] the same measures were 44.42% and 84.6 nM.
Turning to `CC(C)S(=O)(=O)c1ccc(-c2ccc3c(n2)Oc2ccccc2[C@@H]3C(C)(C)C(=O)NC(N)=O)cc1` [Example 82], the “AP-1 Max % inhibition” value in test [2] was 60.06%. Also, the EC50 in test [2] (Homo sapiens) was found to be 6.69 nM.
For `CC(C)(C(=O)NC(N)=O)[C@@H]1c2ccc(-c3ccc(C(=O)N4CCC4)cc3)nc2Oc2c(F)cccc21` [Example 84] the same measures were 67.75% and 4.22 nM.
